Reference: the supplement of paper PMC11208160

Assay: recombinant barcode read abundance after kanamycin selection (control-corrected) (log10(CPM+1)); higher = more efficient recombination; sequences stand for … in AGTGCAGAGAAAATCGGCCAGTTTTCTCTGCCTGCAGTCCGCATGCCGT…AGATTTATGCAGCGGACTGCCTTTCTCCCAAAGTGATAAACCGGACAGTATCATGGACCGGTTTTCCCGGTAATCCGTATTTGCAAGGTTGGTTTCACT; site = the 11-nt target
Procedure, shortened: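 Each value is log10(CPM+1). It describes recombination efficiency, taken as averaged, control-corrected counts per million of barcodes at recombinant junctions. The pooled E. coli library paired targets with IS621 bridge RNA target-binding loops, was co-electroporated with a donor plasmid, and was plated twice on chloramphenicol/ampicillin LB agar (control) and twice on chloramphenicol/ampicillin/kanamycin containing 0.1 mM IPTG.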
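Also: IS621 recombinase and bridge RNA in Escherichia coli cells.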

Sequence | recombinant barcode read abundance (log10)
GTCGGTCCTTGGGTTCTAACCTGTTGCAC (site TGAAACTCTCC) | 0.0122
GTCGTACCTTGGGTTCTAACCTGTTGCCT (site GTCATACCTAG) | 0.348
GTCGTACCTTGGGTTCTAACCTGTTGCCT (site GTCCTACCTAG) | 0.0361
GTCGTACCTTGGGTTCTAACCTGTTGCCT (site GTCGTACCTAG) | 0.704
GTCGTACCTTGGGTTCTAACCTGTTGCCT (site GTCTTACCTAG) | 0.221
GTCGTAGCTTGGGTTCTAACCTGTTGCTA (site GTCGAACCTTA) | 0.139
GTCGTAGCTTGGGTTCTAACCTGTTGCTA (site GTCGTAGCTTA) | 0.353
GTCGTCGCTTGGGTTCTAACCTGTTGCCT (site GTCGTCACTAG) | 0.136
GTCGTCGCTTGGGTTCTAACCTGTTGCCT (site GTCGTCCCTAG) | 0.0726
GTCGTCGCTTGGGTTCTAACCTGTTGCCT (site GTCGTCGCTAG) | 0.376
GTCGTCGCTTGGGTTCTAACCTGTTGCCT (site GTCGTCTCTAG) | 0.0427
GTCTAAGCTTGGGTTCTAACCTGTTGCCG (site GTCTAAGCTCG) | 0.59
GTCTAAGCTTGGGTTCTAACCTGTTGCCG (site GTCTACGCTTG) | 0.0178
GTCTAAGCTTGGGTTCTAACCTGTTGCTT (site GTCTAAGCTAA) | 0.0172
GTCTAAGCTTGGGTTCTAACCTGTTGCTT (site GTCTATGCTAC) | 0.295
GTCTAATCTTGGGTTCTAACCTGTTGCAT (site ACAGGTCCTCG) | 0.0725
GTCTAATCTTGGGTTCTAACCTGTTGCAT (site GTCTAATCTAT) | 1.02
GTCTCGTCTTGGGTTCTAACCTGTTGCTT (site GTCTCGTCTAA) | 0.246
GTCTCGTCTTGGGTTCTAACCTGTTGCTT (site GTCTCTTCTTA) | 0.0559
GTCTGAGCTTGGGTTCTAACCTGTTGCCT (site GTCTAAGCTAG) | 0.241
GTCTGAGCTTGGGTTCTAACCTGTTGCCT (site GTCTGAGCTAG) | 0.355
GTCTTATCTTGGGTTCTAACCTGTTGCCT (site GTCTAATCTAG) | 0.0535

Sequence | recombinant barcode read abundance (log10)
GTCTTATCTTGGGTTCTAACCTGTTGCCT (site GTCTCATCTAG) | 0.0374
GTCTTATCTTGGGTTCTAACCTGTTGCCT (site GTCTGATCTAG) | 0.24
GTCTTATCTTGGGTTCTAACCTGTTGCCT (site GTCTTATCTAG) | 1.14
GTCTTGACTTGGGTTCTAACCTGTTGCCA (site GTCTTAACTCG) | 0.0812
GTCTTGACTTGGGTTCTAACCTGTTGCCA (site GTCTTGACTTG) | 0.102
GTGAAAGCTTGGGTTCTAACCTGTTGCCA (site GTGAAAGCTTG) | 0.73
GTGAAAGCTTGGGTTCTAACCTGTTGCCA (site GTGGAAGCTTG) | 0.0113
GTGAACCCTTGGGTTCTAACCTGTTGCAA (site GTGAACCCTTT) | 1.66
GTGAACCCTTGGGTTCTAACCTGTTGCAA (site TCCGGAGCTCG) | 0.103
GTGAACCCTTGGGTTCTAACCTGTTGCAG (site GTGAACCCTCT) | 2.11
GTGAACCCTTGGGTTCTAACCTGTTGCAG (site GTGATCCCTCT) | 0.0104
GTGAAGACTTGGGTTCTAACCTGTTGCTT (site AACGTACCTCT) | 0.125
GTGAAGACTTGGGTTCTAACCTGTTGCTT (site GTGAAGACTAA) | 1.41
GTGACCTCTTGGGTTCTAACCTGTTGCCT (site GCTACCTCTAG) | 0.0896
GTGACCTCTTGGGTTCTAACCTGTTGCCT (site GTGACCTCTAG) | 1.49
GTGAGAACTTGGGTTCTAACCTGTTGCCA (site CGTGACCCTCC) | 0.0895
GTGAGAACTTGGGTTCTAACCTGTTGCCA (site GTGAGAACTTG) | 0.588
GTGAGCACTTGGGTTCTAACCTGTTGCGG (site GTGAGAGCTCC) | 0.0559
GTGAGCACTTGGGTTCTAACCTGTTGCGG (site GTGAGCACTCC) | 1.84
GTGAGGACTTGGGTTCTAACCTGTTGCCA (site GTAACGACTTG) | 0.252
GTGAGGACTTGGGTTCTAACCTGTTGCCA (site GTGAGGACTTG) | 1.53
GTGAGGTCTTGGGTTCTAACCTGTTGCTT (site GTGAGGTCTAA) | 2.01

Sequence | recombinant barcode read abundance (log10)
GTGAGGTCTTGGGTTCTAACCTGTTGCTT (site GTGAGGTCTAC) | 0.229
GTGAGGTCTTGGGTTCTAACCTGTTGCTT (site GTGAGGTCTAG) | 1.46
GTGAGGTCTTGGGTTCTAACCTGTTGCTT (site GTGAGGTCTAT) | 1.38
GTGAGTGCTTGGGTTCTAACCTGTTGCCA (site ATAAGTGCTTG) | 0.475
GTGAGTGCTTGGGTTCTAACCTGTTGCCA (site GTGAGTGCTTG) | 0.723
GTGATCCCTTGGGTTCTAACCTGTTGCAG (site GTGAACCCTCT) | 0.184
GTGATCCCTTGGGTTCTAACCTGTTGCAG (site GTGATCCCTCT) | 1.79
GTGCAACCTTGGGTTCTAACCTGTTGCCT (site AGTGTCACTCC) | 0.056
GTGCAACCTTGGGTTCTAACCTGTTGCCT (site GTGCAACCTAG) | 1.34
GTGCACACTTGGGTTCTAACCTGTTGCCA (site GTGCAAACTAG) | 0.0839
GTGCACACTTGGGTTCTAACCTGTTGCCA (site GTGCACACTTG) | 0.736
GTGCCCGCTTGGGTTCTAACCTGTTGCAG (site AAATGACCTAC) | 0.0527
GTGCCCGCTTGGGTTCTAACCTGTTGCAG (site GTGCCCGCTCT) | 0.961
GTGCCCTCTTGGGTTCTAACCTGTTGCCG (site GTGCCCGCTCC) | 0.0127
GTGCCCTCTTGGGTTCTAACCTGTTGCCG (site GTGCCCTCTCG) | 1.66
GTGCCTCCTTGGGTTCTAACCTGTTGCTT (site GTGCCTCCTAA) | 1.01
GTGCCTCCTTGGGTTCTAACCTGTTGCTT (site GTGTATCCTAA) | 0.0505
GTGCGCTCTTGGGTTCTAACCTGTTGCCG (site GTGAGCCCTCG) | 0.076
GTGCGCTCTTGGGTTCTAACCTGTTGCCG (site GTGCGCTCTCG) | 1.49
GTGCGGACTTGGGTTCTAACCTGTTGCGT (site GTGAGGACTAC) | 0.676
GTGCGGACTTGGGTTCTAACCTGTTGCGT (site GTGCGGACTAC) | 2.06
GTGCTCGCTTGGGTTCTAACCTGTTGCCT (site CTGCCCGCTAG) | 0.0812

Sequence | recombinant barcode read abundance (log10)
GTGCTCGCTTGGGTTCTAACCTGTTGCCT (site GTGCTCGCTAG) | 1.87
GTGGAATCTTGGGTTCTAACCTGTTGCCT (site GTGAGATCTAG) | 0.307
GTGGAATCTTGGGTTCTAACCTGTTGCCT (site GTGGAATCTAG) | 1.6
GTGGACTCTTGGGTTCTAACCTGTTGCTA (site GTGGACTCTTA) | 2.44
GTGGACTCTTGGGTTCTAACCTGTTGCTA (site GTGTACTCTAA) | 0.0609
GTGGCCACTTGGGTTCTAACCTGTTGCCT (site GTAGCCACTAG) | 1.86
GTGGCCACTTGGGTTCTAACCTGTTGCCT (site GTCGCCACTAG) | 0.152
GTGGCCACTTGGGTTCTAACCTGTTGCCT (site GTGGCCACTAG) | 1.74
GTGGCCACTTGGGTTCTAACCTGTTGCCT (site GTTGCCACTAG) | 0.229
GTGGGCACTTGGGTTCTAACCTGTTGCCT (site AGAAAGGCTGC) | 0.166
GTGGGCACTTGGGTTCTAACCTGTTGCCT (site GTGGGCACTAG) | 0.225
GTGGTATCTTGGGTTCTAACCTGTTGCCT (site GTGGTAACTAG) | 0.268
GTGGTATCTTGGGTTCTAACCTGTTGCCT (site GTGGTACCTAG) | 0.396
GTGGTATCTTGGGTTCTAACCTGTTGCCT (site GTGGTAGCTAG) | 0.312
GTGGTATCTTGGGTTCTAACCTGTTGCCT (site GTGGTATCTAG) | 1.68
GTGTACCCTTGGGTTCTAACCTGTTGCAC (site AGTATAACTCA) | 0.132
GTGTACCCTTGGGTTCTAACCTGTTGCAC (site GTGTACCCTGT) | 2.35
GTGTACCCTTGGGTTCTAACCTGTTGCGA (site GTGTACCCTAC) | 0.129
GTGTACCCTTGGGTTCTAACCTGTTGCGA (site GTGTACCCTCC) | 0.0447
GTGTACCCTTGGGTTCTAACCTGTTGCGA (site GTGTACCCTGC) | 0.0937
